Measurements as given in publication PMC8961585, “Inhibition of Polyglutamine Misfolding with D-Enantiomeric Peptides Identified by Mirror Image Phage Display Selection” (Biomolecules, 2022).

Columns and labels:
L-ARQ46 [1] = target: T1, L-ARQ46 (Homo sapiens, UniProt P10275); experiment: ThT aggregation assay, monomeric ARQ46, unseeded; type: biochemical
T1 construct: L-ARQ46; purchased peptides & elephants GmbH (Henningsdorf, Germany); host or cells: chemical synthesis
Procedure: (§1) Following the disaggregation protocol that Chen et al. published, the polyglutamine proteins were incubated for three days in 1:1 TFA/Hexafluoroisopropanol (HFIP) or overnight in 100% trifluoroacetic acid (TFA). Afterwards the solvent was evaporated with N2 gas treatment and the polyglutamine protein redissolved in the experiment buffer.
(§2) Thioflavin T (ThT) assays were performed to monitor the time-dependent formation of amyloidogenic aggregates. The assays were performed at 37 °C in TBS pH 7.5 (15 µM ThT) with 300 rpm double orbital shaking. All buffers were sterile filtrated beforehand. Polyglutamine proteins were disaggregated as described before. The peptides were pre-diluted in TBS pH 7.5. The disaggregated polyglutamine protein in buffer was mixed with 15 µM ThT and the pre-diluted peptides in a 96-well half-area flat-bottom microplate (Corning, New York, NY, USA). During the experiment all wells contained 100 µL ThT solution. Sealing the plate with foil (Thermo Fisher Scientific, Waltham, MA, USA) helped to prevent evaporation. The progression of fluorescence intensity was tracked by a microplate reader (BMG Labtech, Ortenberg, Germany).
The lag-time was estimated as follows: the average variation of the curve was determined with the last ten values of the steady state. […]
The progression of fluorescence intensity was measured every 30 min at λex = 410 nm and λem = 482 nm with 30 s agitation at 300 rpm before every measurement. (A) Fluorescence intensity measured at 90 h of the aggregation assay starting with 15 µM monomeric ARQ46 without peptide and with 15 µM QF2D-1, QF2D-2, QF2D-3, QF2D-4, QF2D-5, QF2D-6, QF2D-7, QF2D-8 or QF2D-9. […] The mean fluorescence intensity is shown for each time point. […]
Figure 8 Effect of different QF2D-2 concentrations on the aggregation of ARQ46; ThT assay with L-ARQ46 was performed at 37 °C in TBS pH 7.5. The progression of fluorescence intensity was measured every 30 min at λex = 410 nm and λem = 482 nm with 30 sec agitation at 300 rpm before every measurement. […] The mean fluorescence intensity is shown for each time point. […]

L-ARQ46 [2] = target: T1, L-ARQ46; experiment: SPR binding to immobilized L-ARQ46; conditions: L-ARQ46 immobilized on CM5 chip via amine coupling (1400 RU); steady state affinity fit; TBS pH 7.5, 0.05% Tween, 25 °C; multi-cycle, up to 20 µM; data not shown
Procedure: Binding studies were performed with surface plasmon resonance (SPR) in a Biacore T200 device (Biacore, GE Healthcare, Uppsala, Sweden). The L-ARQ46 was immobilized on a CM5 Chip via amine coupling (1400 RU). The selected D-enantiomeric peptide compound QF2D-2 was dissolved in the running buffer (TBS pH 7.5 with 0.05% Tween) and served as the analyte in multi-cycle experiments, with the highest peptide concentration being 20 µM. Experiments were performed at 25 °C with a flow rate of 45 µL/min. After a contact time of 110 s and a dissociation time of 400 s, the surface was regenerated with low pH (Glycin-HCl, pH 2.2) for 30 s with a flow rate of 30 µL/min. The data were evaluated via affinity fit of the steady state using the biacore evaluation software.

L-ARQ46 [3] = target: T1, L-ARQ46; experiment: ThT aggregation assay of ARQ46 seeded with soluble aggregate fragments; type: biochemical; conditions: 15 µM ARQ46
Procedure: as §1, §2
For seeded experiments, the slope of the curve was considered instead of the lag-time because seeding eliminated the lag-time. The slope was determined by plotting the first values and fitting with a linear fit. The considered period (2 to 3.5 h) was similar for the curves compared with.
The disaggregated ARQ46 was diluted to 300 µM and incubated at 37 °C, 400 rpm. After 24 h large, white aggregates were visible in the tube. The sample was sonicated (Sonopuls, Bandelin electronic GmbH & Co. KG, Berlin, Germany) four times for 15 s with an amplitude of 60%. Between the sonification steps the sample was cooled on ice. Post sonification the sample was turbid. It was centrifuged at 100,000 g for 1 h at 4 °C to remove insoluble aggregates from the solution. The clear supernatant was used for seeding with soluble aggregate fragments.
Figure 5 QF2D-1, QF2D-2 and QF2D-6 inhibit the aggregation of ARQ46 in presence of soluble aggregate fragment seeds; ARQ46 was aggregated, and the solution was subject to spinning at 100,000 g in an ultracentrifuge. The supernatant was preincubated with 15 µM and 7.5 µM of one of the selected compounds in TBS at 37 °C. After 23 h, 15 µM monomeric ARQ46 were added, and the fluorescence intensity was measured every 15 min at λex = 448 nm and λem = 482 nm with agitation at 300 rpm between measurements. P8 served as a control compound that was not selected on polyglutamine, whereas QBP1 is claimed to bind polyglutamine tracts and inhibit polyglutamine-driven aggregation. (A) Fluorescence intensity of P8, QBP1, QF2D-1, QF2D-2 and QF2D-6 in equimolar and sub stoichiometric ratio at 90 h. (B) The data points acquired between 24 h and 26 h- shortly after monomer addition- were fitted with a linear fit. The slope was compared. (C) Measurement example of the described ThT-assay with ARQ46 (black), P8 (light grey), QBP1 (grey) and QF2D-2 (dark grey). The mean fluorescence intensity is shown for each time point. The experiment was performed in two-fold determination.

[4] = Spontaneous aggregation of polyglutamine peptides (ThT); type: physicochemical; conditions: no inhibitor, TBS pH 7.5, 37 °C
Procedure: as §1, §2
(§3) Figure 1 Disaggregation of ARQ46; Examination of ARQ46 post disaggregation. […] (B) ThT-Measurement of 15 µM ARQ46, disaggregated with 1:1 TFA/HFIP, in TBS pH 7.5 measured at 37 °C.

[5] = CD secondary structure of polyglutamine peptides; type: physicochemical
Procedure: as §1
After disaggregation, polyglutamine proteins were dissolved in TBS pH 7.5 and measured in a quartz crystal cuvette with 1 mm light path (Hellma Analytics, Müllheim, Germany) in a CD spectrometer (J-1100, Jasco Deutschland GmbH, Pfungstadt, Germany) with 4 acquisitions. The High tension voltage (HT) was monitored throughout the experiment. Data for which the HT exceeded 600 V were excluded. Buffer measurements served as references. Analogous, samples containing 50 µM ARQ46 and 50 µM QF2D-1 or QF2D-2 were measured and referenced with the measurement of 50 µM QF2D-1 or QF2D-2 alone. […] The CD spectra of the samples were monitored after 24 h, 48 h and 168 h of aggregation.
as §3
Figure 2 CD-spectrum of D-ARQ23 disaggregated with 100% TFA; Prior to the phage display selection D-ARQ23 was disaggregated with TFA to ensure selection on monomeric target. CD-spectrum was recorded in 10 mM Tris pH 8.

Drosophila = tested on: Drosophila; set-up: method as in PMID 12761040; conditions: cited from earlier work
[6] = tested on: polyglutamine disease mouse model; set-up: method as in PMID 18603372, PMID 23226463, PMID 23504628; conditions: cited from earlier work
polyglutamine proteins = conditions: cited from earlier work
Source text: Patients suffering from polyglutamine diseases present with aggregates in their neurons before symptom onset and therefore probably also before treatments start. Thus, a promising drug candidate should inhibit the aggregation in presence of pre-formed aggregates. […] The effects of the compounds were compared with two controls. The first, P8, has been selected on SOD1 and should not bind to polyg ...

[7] = soluble aggregate seeds, slope 24 to 26 h, peptide concentration not stated (15 or 7.5 µM)

T1 sequence (P10275 with tags, fused parts or gaps): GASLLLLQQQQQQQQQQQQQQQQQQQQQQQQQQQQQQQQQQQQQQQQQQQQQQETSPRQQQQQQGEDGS

In the case of `C[C@H](O)[C@@H](NC(=O)[C@@H](CO)NC(=O)[C@@H](Cc1c[nH]c2ccccc12)NC(=O)[C@@H](CCC(N)=O)NC(=O)[C@@H](CO)NC(=O)[C@@H](CCC(N)=O)NC(=O)[C@H](N)CO)C(=O)N1CCC[C@@H]1C(=O)N[C@H](CCC(N)=O)C(=O)NCC(=O)N[C@H](CCCCN)C(=O)N[C@H](Cc1c[nH]c2ccccc12)C(=O)N[C@H](CO)C(=O)N[C@H](Cc1c[nH]cn1)C(=O)N[C@H](Cc1c[nH]c2ccccc12)C(=O)N1CCC[C@@H]1C(=O)N[C@H](CCCNC(=N)N)C(=O)N[C@H](CCCNC(=N)N)C(=O)N[C@H](CCCNC(=N)N)C(=O)O` [QF2D-2], the “Fluorescence intensity of the steady state, % of that measured for ARQ46” value (L-ARQ46 [1]; at 90 h, equimolar, 15 µM ARQ46 and 15 µM peptide, TBS pH 7.5, 37 °C, λex 410 nm, λem 482 nm, three-fold determination) is reported as “approx. 70%”, the Kd (L-ARQ46 [2]) is reported as 11 µM and the “Reduction of slope compared to QBP1” value (L-ARQ46 [3]; [7]) is reported as 86%. The “Reduction of slope compared with P8” value (L-ARQ46 [3]; [7]) was 96%.
With “KKQQQQQQQQQQQQQQQQQQQQQQQ QQQQQQQQQQQQQQQQQQQQQQQKK [L-K2Q46K2, universal polyglutamine peptide]” the Spontaneous aggregation [4] was “spontaneously formed amyloid fibrils after few hours lag time”.
In the case of “L-ARQ46: androgen receptor fragment with 46 consecutive glutamine residues”, the Spontaneous aggregation [4] is reported as “spontaneously formed amyloid fibrils after few hours lag time”, the “Beta-sheet structure after incubation” value ([5]; TBS pH 7.5, 37 °C, 400 rpm, 24 h) is reported as 100% and the “Secondary structure after disaggregation” value ([5]; freshly disaggregated (100% TFA)) is reported as “a mixture of random coil and alpha-helical structure”.
For SNWKWWPGIFD [QBP1], the “Effect on aggregation of monomeric ARQ46 (repeat with controls)” value (L-ARQ46 [1]; unseeded, ratio not stated, data not shown) is listed as “drastically inhibited the aggregation”, the “Therapeutic effect in Drosophila” value (Drosophila) is listed as “had a therapeutic effect in Drosophila” and the “Neurological effect in mouse model” value [6] is listed as “did not yield beneficial neurological effects”. The “Inhibition of polyglutamine aggregation” value (polyglutamine proteins) was “claimed to inhibit the aggregation of polyglutamine proteins” and the “Effect in presence of soluble aggregate fragments relative to selected peptides” value (L-ARQ46 [3]; soluble aggregate seeds) was “considerably smaller than that of the selected peptides”.
For YDTPKHKDKTWPMM [P8], the “Effect on aggregation of monomeric ARQ46, equimolar (repeat with controls)” value (L-ARQ46 [1]; unseeded, equimolar, data not shown) was “slight inhibiting effect”, the “Slope of ThT curve after monomer addition (24 to 26 h), in words” value (L-ARQ46 [3]; 15 or 7.5 µM peptide preincubated 23 h with soluble seeds, TBS, 37 °C, two-fold determination) was “the steepest” and the “Lag-phase in presence of soluble aggregates” value (L-ARQ46 [3]; soluble aggregate fragment seeds, TBS, 37 °C, two-fold determination) was “no lag-phase observable”.
